Measurements reported in PubChem BioAssay (NCI).
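Step 1: Grow cells in 96-well plates. Step 2: Expose to compound for 48 hours at 5 concentrations. Step 3: Interpolate endpoints linearly; if unreached, use highest concentration. TGI denotes the concentration required for complete inhibition of growth.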

Columns and labels:
Assay in all cases: inhibition of tumour cell growth, NCI panel, 48 h
[1] = tested on: 786-0 renal
[2] = tested on: A549 NSCLC
[3] = tested on: BT-549 breast
[4] = tested on: CAKI-1 renal
[5] = tested on: HCT-116 colon
[6] = tested on: HCT-15 colon
[7] = tested on: HL-60(TB) leukemia
[8] = tested on: HOP-92 NSCLC
[9] = tested on: HS 578T breast
[10] = tested on: HT29 colon
[11] = tested on: MCF7 breast
[12] = tested on: NCI-H226 lung
[13] = tested on: NCI/ADR-RES ovarian
[14] = tested on: OVCAR-4 ovarian
[15] = tested on: SF-268 CNS
[16] = tested on: SF-295 CNS
[17] = tested on: SR leukemia
[18] = tested on: U251 CNS
[19] = tested on: UACC-62 melanoma

Structure (SMILES)	TGI [1] [µM]	TGI [2] [µM]	TGI [3] [µM]	TGI [4] [µM]	TGI [5] [µM]	TGI [6] [µM]	TGI [7] [µM]	TGI [8] [µM]	TGI [9] [µM]	TGI [10] [µM]	TGI [11] [µM]	TGI [12] [µM]	TGI [13] [µM]	TGI [14] [µM]	TGI [15] [µM]	TGI [16] [µM]	TGI [17] [µM]	TGI [18] [µM]	TGI [19] [µM]
CN1C(=O)c2ccccc2OC12C=Cc1ccc(O)cc1O2 (centres undefined)	> 100	> 100	85.5	58	81	> 100	58.5	80.9	84.3	57.2	> 100	92.8	40.4	96.9	> 100	> 100	27.4	> 100	91.6
CC(C(=O)OCc1ccccc1)(c1ccco1)N1C(=O)OC(c2ccccc2)C1c1ccccc1 (centres undefined)	> 100	> 100	> 100	> 100	> 100	> 100	> 100	> 100	> 100	> 100	> 100	> 100	> 100	> 100	> 100	> 100	> 100	> 100	> 100
S=C1SSC2N=CC=CC12 (centres undefined)	> 100	> 100	> 100	34.3	> 100	> 100	> 100	> 100	> 100	> 100	> 100	> 100	> 100	34.2	> 100	> 100	> 100	> 100	> 100
O=C1/C(=C/c2cccc(Br)c2)Cc2ccccc21	> 100	> 100	> 100	> 100	> 100	> 100	> 100	> 100	> 100	> 100	> 100	> 100	> 100	> 100	> 100	> 100	> 100	> 100	> 100
CC1=NC(=Cc2cc(Br)cc(Br)c2)C(=O)N1n1c(-c2ccccc2)nc2ccccc2c1=O	> 100	> 100	> 100	> 100	> 100	> 100	> 100	> 100	> 100	> 100	> 100	> 100	> 100	> 100	> 100	> 100	> 100	> 100	> 100
[N-]=[N+]=NC1C(O)C(CO)OC1n1ccc(=O)[nH]c1=O (centres undefined)	> 875	> 875	> 875	> 875	> 875	> 875	> 875	> 875	> 875	> 875	> 875	> 875	> 875	> 875	> 875	> 875	> 875	> 875	> 875
Nc1nc(Cl)c(N)c(NCC2(CO)CCCC2)n1	> 100	> 100	> 100	> 100	> 100	> 100	> 100	> 100	> 100	> 100	> 100	> 100	> 100	> 100	> 100	> 100	> 100	> 100	7.44
O=c1cc(CO)oc(C(O)c2ccccc2)c1O (centres undefined)	> 100	> 100	> 100	> 100	> 100	> 100	> 100	> 100	> 100	> 100	> 100	> 100	> 100	> 100	> 100	> 100	> 100	> 100	> 100
C=C(C(=O)O)[C@@H]1C[C@@H](OC(C)=O)[C@]2(C)CC/C=C(\C)CCC[C@H](C)[C@H](O)[C@@H]1O2	> 100	> 100	> 100	> 100	> 100	> 100	57.4	> 100	> 100	> 100	> 100	> 100	> 100	> 100	> 100	> 100	65.1	> 100	> 100
CCCCCCOc1ccc(Nc2c(O)c3c(c(O)c2Cl)C(=O)C=CC3=O)cc1	> 7.32	> 10	> 6.01	> 10	> 6.12	3.68	3.74	7.14	8.39	> 7.46	> 4.88	> 10	6.54	> 8.13	> 10	> 10	5.33	> 6.07	7.99
Cc1nn(C(=O)c2ccc(Cl)cc2)c2c1C(/C=C/c1ccccc1)SC(N)=N2 (centres undefined)	> 10	> 10	> 10	> 10	> 10	> 10	> 10	> 10	> 10	> 10	> 10	> 10	> 10	> 10	> 10	> 10	> 10	> 10	> 10
